# In ChEMBL document CHEMBL1201862, “PubChem BioAssay data set” (2004):
# Activity calls are given as the source filed them.
# Tests used:
# [1] = target: T1, Corticotropin-releasing factor receptor 2/Corticotropin-releasing factor-binding protein (Homo sapiens, UniProt P24387+Q13324); experiment: Dose Response confirmation of uHTS hits for small molecule antagonists of the CRF-binding protein and CRF-R2 receptor complex.; format: functional; details: read-out: IC50_Mean
# T1 sequence (Q13324 whole entry): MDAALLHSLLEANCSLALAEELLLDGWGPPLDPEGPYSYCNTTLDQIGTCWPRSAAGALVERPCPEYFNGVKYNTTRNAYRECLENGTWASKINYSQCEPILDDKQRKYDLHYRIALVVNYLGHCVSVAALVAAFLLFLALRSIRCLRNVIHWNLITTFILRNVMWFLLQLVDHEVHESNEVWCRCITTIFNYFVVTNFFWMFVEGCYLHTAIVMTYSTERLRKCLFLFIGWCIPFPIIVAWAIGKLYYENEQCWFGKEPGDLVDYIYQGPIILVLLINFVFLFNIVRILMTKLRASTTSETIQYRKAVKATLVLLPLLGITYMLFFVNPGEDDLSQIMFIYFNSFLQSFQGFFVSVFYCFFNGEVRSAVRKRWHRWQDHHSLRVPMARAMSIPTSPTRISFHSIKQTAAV
# T1 sequence (P24387 whole entry): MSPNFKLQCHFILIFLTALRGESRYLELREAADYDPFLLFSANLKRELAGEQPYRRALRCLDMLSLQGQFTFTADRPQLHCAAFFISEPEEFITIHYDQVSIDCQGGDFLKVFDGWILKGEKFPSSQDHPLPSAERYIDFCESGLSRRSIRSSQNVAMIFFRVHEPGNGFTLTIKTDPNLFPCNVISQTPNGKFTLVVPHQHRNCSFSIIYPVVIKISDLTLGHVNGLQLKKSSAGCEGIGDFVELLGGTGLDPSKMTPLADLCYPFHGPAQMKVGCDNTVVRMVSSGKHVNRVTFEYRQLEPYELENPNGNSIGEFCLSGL
# H4 = experiment: Luminescence Cell-Based Dose Response HTS to Identify Activators of 5'UTR Stem-Loop Driven Prion Protein mRNA Translation in H4 Neuroglioblastoma Cells. [Related pubchem assays: 1829 (Project Summary), 1814 (Primary HTS)]; format: functional; details: Homo sapiens
# [2] = target: T1, Corticotropin-releasing factor receptor 2/Corticotropin-releasing factor-binding protein; experiment: activators of CRF receptor 2 with binding protein – uHTS hits, confirmation (AID 602473); format: functional; details: read-out: EC50_Mean
# [3] = Luminescence Cell-Based Dose Response HTS to Identify Activators of Luciferase Translation or Activity in H4 […] Cells. [Related pubchem assays: 1829 (Project Summary), 1814 (Primary HTS)]; format: functional
# [4] = Luminescence Cell-Based Dose Confirmation HTS to Identify Activators of 5'UTR Stem-Loop Driven Alpha-Synuclein mRNA Translation in H4 Neuroglioblastoma Cells. [Related pubchem assays: 1829 (Project Summary), 1814 (Primary HTS)]; format: functional
# [5] = microbe, parasite or virus in culture; format: functional; details: Mycobacterium tuberculosis
# [6] = target: T2, Polyadenylate-binding protein 1 (Homo sapiens, UniProt P11940); experiment: PABP1 MLLE–PAM2 binding inhibitor potency, dose response, biochemical, fluorescence polarization, FITC-PAM2 peptide (AID 602259); format: functional; details: read-out: IC50_Mean
# T2 sequence (P11940 whole entry): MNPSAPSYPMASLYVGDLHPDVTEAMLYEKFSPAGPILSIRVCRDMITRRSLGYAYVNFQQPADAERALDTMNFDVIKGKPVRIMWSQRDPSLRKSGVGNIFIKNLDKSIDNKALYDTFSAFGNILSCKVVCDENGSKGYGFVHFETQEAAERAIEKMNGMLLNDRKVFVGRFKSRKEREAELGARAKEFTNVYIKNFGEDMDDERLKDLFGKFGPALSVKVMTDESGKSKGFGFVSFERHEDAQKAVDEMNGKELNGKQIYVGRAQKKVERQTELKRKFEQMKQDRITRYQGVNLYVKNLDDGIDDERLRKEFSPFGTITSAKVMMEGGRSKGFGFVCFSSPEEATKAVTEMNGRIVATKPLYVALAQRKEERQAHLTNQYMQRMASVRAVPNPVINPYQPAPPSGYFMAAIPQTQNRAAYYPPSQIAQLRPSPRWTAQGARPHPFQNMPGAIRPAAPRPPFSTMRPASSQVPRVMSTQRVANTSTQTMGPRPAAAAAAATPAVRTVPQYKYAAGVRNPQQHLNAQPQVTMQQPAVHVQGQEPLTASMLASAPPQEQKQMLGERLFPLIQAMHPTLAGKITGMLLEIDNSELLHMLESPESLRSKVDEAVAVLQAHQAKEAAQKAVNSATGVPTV
# [7] = target: T2, Polyadenylate-binding protein 1; experiment: PABP1 MLLE–PAM2 interaction inhibitors, dose response, miRNA deadenylation inhibitor project, biochemical, fluorescence polarization, Cy5-PAM2 peptide, secondary (AID 602260); format: functional; details: read-out: IC50_Mean
# Cytochrome P450 2C19 = Cytochrome P450 2C19 (Homo sapiens, UniProt P33261); experiment: Cytochrome panel assay with activity outcomes. Panel member name: p450-cyp2c19 Compounds with AC50 equal or less than 10 uM are considered active; format: functional; details: read-out: AC50
# Chain of Cytochrome P450 2C19 (P33261 whole entry): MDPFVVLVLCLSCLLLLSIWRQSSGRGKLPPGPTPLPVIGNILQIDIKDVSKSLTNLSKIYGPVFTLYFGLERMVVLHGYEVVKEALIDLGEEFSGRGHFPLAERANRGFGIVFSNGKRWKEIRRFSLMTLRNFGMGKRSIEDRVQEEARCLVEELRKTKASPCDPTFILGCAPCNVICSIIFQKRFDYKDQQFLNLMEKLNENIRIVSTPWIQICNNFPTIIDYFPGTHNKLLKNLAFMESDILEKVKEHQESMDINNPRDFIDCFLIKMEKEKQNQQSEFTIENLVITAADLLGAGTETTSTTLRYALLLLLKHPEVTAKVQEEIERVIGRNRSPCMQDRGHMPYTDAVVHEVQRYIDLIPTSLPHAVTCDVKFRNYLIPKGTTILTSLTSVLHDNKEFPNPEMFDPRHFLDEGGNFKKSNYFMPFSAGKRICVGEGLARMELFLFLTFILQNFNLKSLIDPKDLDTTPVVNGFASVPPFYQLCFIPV
# [8] = P. falciparum Dd2 growth inhibitors, dose response, SYBR Green, cherry-picked samples (AID 1159567); format: functional, cell-based
SMILES,EC50 (H4),EC50 [3],EC50 [4],CC50 [5],further results
Cc1c(-c2ccc(Cl)cc2)[n+]([O-])c(-c2ccccc2)c[n+]1[O-],> 120 µM (not active),> 120 µM (not active),> 120 µM (not active),–,IC50 [1]: > 47.1 µM (inactive); EC50 [2]: > 53 µM (inactive)
Cc1ccc(C(=O)c2nc3c(n2O)CCCC3)cc1,25.7 µM (active),> 120 µM (not active),> 120 µM (not active),–,–
O=C(/C=C/c1ccc(O)c([N+](=O)[O-])c1)c1ccc2ccccc2c1,17.9 µM (active),14.5 µM (active),16.6 µM (active),> 40 µM (active),–
COc1cccc(Nc2ccc([N+](=O)[O-])c3nonc23)c1,–,–,–,> 40 µM (active),–
CC(Oc1ccc2c(c1)c1ccnc3c4ccccc4c(=O)n2c13)C(=O)NCCN1CCOCC1 (stereo not given),> 120 µM (not active),12.5 µM (active),19.6 µM (active),–,–
COc1cccc(NC(=S)N/N=C2/CCCCc3ccccc32)c1,33.6 µM (active),8.02 µM (active),7.09 µM (active),–,IC50 [6]: > 66 µM (inactive); IC50 [7]: > 66 µM (inactive)
OCC(O)/C=N/Nc1nc(Nc2ccccc2)nc(Nc2ccccc2)n1 (stereo not given),–,–,–,> 40 µM (active),–
COc1ccc(-c2nn(-c3ccccc3)cc2/C=N/NC(=O)c2ccc3c(c2)OCO3)cc1,18.5 µM (active),12.2 µM (active),18.3 µM (active),–,AC50 (Cytochrome P450 2C19): 2.24 µM (inconclusive)
C/C(=N\NC(=O)CN1CCCCC1)c1cccc([N+](=O)[O-])c1,26.9 µM (active),9.5 µM (active),13.6 µM (active),–,–
COc1ccc2c3c([nH]c2c1)[C@H](CO)N(Cc1cccc(Cl)c1)CC31CCN(C(C)=O)CC1,–,–,–,–,AC50 [8]: 4.26 µM (active)
